Several values for one entry are separate records, joined by “and”; a condition that tells them apart may be missing. Equal entries are not always repeated. Bridge positions count the residues as written; N and C are the ends. Square brackets hold non-standard residues; d marks the D form. Peptide text beside a SMILES is read from it.
Tests used:
[1] = Plasma stability, human plasma; settings: for remaining at 1 h, 10 µM / remaining at 3 h, 10 µM / remaining at 6 h, 10 µM / half-life: human; for remaining at 1 h, 10 µM / remaining at 3 h, 10 µM / remaining at 6 h, 10 µM: human Li-heparin plasma; for half-life: plasma
Experimental: (§1) Plasma stability measurements were performed by spiking 5 μl of a 1 mM compound stock solution in DMSO into 495 μl of human or mouse Li-heparin plasma (Innovative Research, Cat. No, IPLALIH5OML (human) and IMS-BC-N (Balb C mouse). The spiked plasma was distributed in 50 μl aliquots into capped PCR tubes for incubation at 37° C. At each time point (0, 2, 6, 24 hours*) 3*aliquots were withdrawn from the incubator. Enzymatic reactions were quenched directly after withdrawal by adding 100 μl of acetonitrile/formic acid=99/1 (v/v). Quenched samples were stored at ambient temperature until the end of the incubation period (24 hrs*). After centrifugation, the supernatant was transferred into fresh vials and analyzed by LC-MS/MS in ESI positive mode (Waters ACQUITY UPLC I-Class System (SM-FTN) with Xevo TQD triple quadrupole mass spectrometer with control software Waters MassLynx). […] Values below the limit of quantification (0.1 μM) and outliers of triplicate results were excluded from further calculations. An exponential regression curve was fitted onto the concentration results. Half-life times were calculated from the slope of the regression curve (t1/2=ln(2)/slope).
(§2) For some samples, as indicated below, the incubation time was 6 hours. The 24 hour data was measured in triplicates whereas the 6 hour data was measured in duplicates.

[2] = Plasma stability, mouse plasma; settings: for remaining at 1 h, 10 µM / remaining at 3 h, 10 µM / remaining at 6 h, 10 µM: Balb C, Li-heparin plasma; for remaining at 1 h, 10 µM / remaining at 3 h, 10 µM / remaining at 6 h, 10 µM / half-life: mouse; for Conc. (% of T0) / Mean (compound concentration) / Tube 2 (compound concentration) / Tube 1 (compound concentration) / half-life: mouse plasma, 37° C.; for half-life: plasma
Experimental: as §1, §2

[3] = target: NbALFA; experiment: SPR measurements of NbALFA binding (Biacore T200, multi cycle kinetics, 1:1 binding model); settings: for Kd / ka / kd: 25° C., HBS-EP+ buffer, biotinylated NbALFA captured
Experimental: Affinity measurements were performed using a Biacore T200 (GE Healthcare, Biacore T200 control Software 3.2). […] A freshly docked Biotin CAPture chip was rehydrated overnight in the instrument (standby mode). […] The immobilization of the Nanobody was done for 180 s at 10 μL/min on FC2 followed by quenching of unbound streptavidin by 0.1 mM biocytin for 60 s and 30 μL/min on both flow cells. […] After each cycle, the surface was regenerated for 120 s with 10 μL/min using regeneration solution. All measurements were performed at 25° C. using HBS-EP+ buffer (Cytiva Europe, Cat. no BR100669). The control responses from FC1 were subtracted by the sample measurement in FC2 (FC2−FC1) followed by subtraction of the 0 nM blank injection. Resulting binding curves of this multi cycle kinetic experiment were fitted using the Biacore T200 Evaluation Software 3.2 and a 1:1 binding model.

[4] = human plasma, 37° C., timepoint 0 h
[5] = human plasma, 37° C., timepoint 0 h, calibration range 0.1 to 10 μM
[6] = human plasma, 37° C., timepoint 1 h
[7] = human plasma, 37° C., timepoint 3 h
[8] = human plasma, 37° C., timepoint 6 h
[9] = Flag (half-life, assay exceeded), human plasma, 37° C.
[10] = Half-life time, human plasma, 37° C., incubation 24 h (triplicates) or 6 h (duplicates)
[11] = timepoint 0 h, calibration range 0.1 to 10 μM
[12] = Flag (half-life, assay exceeded)
[13] = Half-life time, incubation 24 h (triplicates) or 6 h (duplicates)
[14] = Conc. (% of T0), human plasma, 37° C., timepoint 1 h
[15] = Conc. (% of T0), human plasma, 37° C., timepoint 3 h

Row | SMILES | Conc. (% of T0) [1, 4] | half-life [1, 9] [h] | half-life [1, 10] [h] | remaining at 1 h, 10 µM [2] [%] | remaining at 3 h, 10 µM [2] [%] | remaining at 6 h, 10 µM [2] [%] | Conc. (% of T0) ([2]; timepoint 0 h) | Mean (compound concentration) ([2]; timepoint 0 h) | Tube 2 (compound concentration) ([2]; timepoint 0 h) | Tube 1 (compound concentration) [2, 11] [x] | Mean (compound concentration) ([2]; timepoint 1 h) | Tube 1 (compound concentration) ([2]; timepoint 1 h) [x] | Tube 2 (compound concentration) ([2]; timepoint 1 h) | Mean (compound concentration) ([2]; timepoint 3 h) | Tube 1 (compound concentration) ([2]; timepoint 3 h) [x] | Tube 2 (compound concentration) ([2]; timepoint 3 h) | Mean (compound concentration) ([2]; timepoint 6 h) | Tube 1 (compound concentration) ([2]; timepoint 6 h) [x] | Tube 2 (compound concentration) ([2]; timepoint 6 h) | half-life [2, 13] [h] | further results
1 | CC(=O)N1CCC[C@H]1C(=O)N[C@@H](CO)C(=O)N[C@@H](CCCNC(=N)N)C(=O)N[C@@H](CC(C)C)C(=O)N[C@@H](CCC(=O)O)C(=O)N[C@H]1CCCCNC(=O)CC[C@@H](C(=O)N[C@@H](CCCNC(=N)N)C(=O)N[C@@H](CC(C)C)C(=O)N[C@H](C(=O)N[C@@H](CCC(=O)O)C(N)=O)[C@@H](C)O)NC(=O)[C@H](CCCNC(=N)N)NC(=O)[C@H](CC(C)C)NC(=O)[C@H](CCC(=O)O)NC1=O [SD15805, Ac-Pro-Ser-Arg-Leu-Glu-(cyclo6)Lys-Glu-Leu-Arg-(cyclo10)Glu-Arg-Leu-Thr-Glu-NH2] (Ac-PSRLEKELRERLTE-NH2; lactam 6-10) | 100.0 % of T0 | > 6 | 13.8 | 82.1 | 78.3 | 53.8 | 100.0 % of T0 | 2.697 | 2.811 | 2.583 | 2.213 | 2.223 | 2.203 | 2.112 | 2.125 | 2.099 | 1.450 | 1.429 | 1.471 | 7.29 | Mean (compound concentration) [1, 4]: 2.836; Tube 2 (compound concentration) [1, 4]: 2.777; Tube 1 (compound concentration) [1, 5]: 2.894 x; Mean (compound concentration) [1, 6]: 2.507; Tube 1 (compound concentration) [1, 6]: 2.529 x; Tube 2 (compound concentration) [1, 6]: 2.485; Mean (compound concentration) [1, 7]: 2.356; Tube 1 (compound concentration) [1, 7]: 2.408 x; Tube 2 (compound concentration) [1, 7]: 2.304; Mean (compound concentration) [1, 8]: 2.046; Tube 1 (compound concentration) [1, 8]: 2.046 x; Tube 2 (compound concentration) [1, 8]: 2.045; remaining at 1 h, 10 µM [1]: 88.4%; remaining at 3 h, 10 µM [1]: 83.1%; remaining at 6 h, 10 µM [1]: 72.1%; half-life [2, 12]: > 6 h; Kd [3]: 0.103 nM; ka [3]: 9.33e+06 M⁻¹ s⁻¹; kd [3]: 0.000964 s⁻¹
2 | CC(=O)N1CCC[C@H]1C(=O)N[C@@H](CO)C(=O)N[C@@H](CCCNC(=N)N)C(=O)N[C@@H](CC(C)C)C(=O)N[C@H]1CCC(=O)NCCCC[C@@H](C(=O)N[C@@H](CCCNC(=N)N)C(=O)N[C@@H](CCCNC(=N)N)C(=O)N[C@@H](CC(C)C)C(=O)N[C@H](C(=O)N[C@@H](CCC(=O)O)C(N)=O)[C@@H](C)O)NC(=O)[C@H](CC(C)C)NC(=O)[C@H](CCC(=O)O)NC(=O)[C@H](CCC(=O)O)NC1=O [SD15806, Ac-Pro-Ser-Arg-Leu-(cyclo5)Glu-Glu-Glu-Leu-(cyclo9)Lys-Arg-Arg-Leu-Thr-Glu-NH2] (Ac-PSRLEEELKRRLTE-NH2; lactam 5-9) | 100.0 % of T0 | > 6 | 20.8 | 88.4 | 83.1 | 73.7 | 100.0 % of T0 | 3.073 | 3.145 | 3.000 | 2.717 | 2.773 | 2.661 | 2.553 | 2.604 | 2.501 | 2.265 | 2.258 | 2.272 | 14.9 | Mean (compound concentration) [1, 4]: 3.040; Tube 2 (compound concentration) [1, 4]: 2.965; Tube 1 (compound concentration) [1, 5]: 3.114 x; Mean (compound concentration) [1, 6]: 2.859; Tube 1 (compound concentration) [1, 6]: 2.843 x; Tube 2 (compound concentration) [1, 6]: 2.874; Mean (compound concentration) [1, 7]: 2.629; Tube 1 (compound concentration) [1, 7]: 2.772 x; Tube 2 (compound concentration) [1, 7]: 2.486; Mean (compound concentration) [1, 8]: 2.476; Tube 1 (compound concentration) [1, 8]: 2.534 x; Tube 2 (compound concentration) [1, 8]: 2.417; remaining at 1 h, 10 µM [1, 14]: 94%; remaining at 3 h, 10 µM [1, 15]: 86.5%; remaining at 6 h, 10 µM ([1]; Conc. (% of T0), human plasma, 37° C., timepoint 6 h): 81.4%; half-life [2, 12]: > 6 h; Kd [3]: 1.43 nM; ka [3]: 3.44e+09 M⁻¹ s⁻¹; kd [3]: 4.94 s⁻¹
3 | CC(=O)N1CCC[C@H]1C(=O)N[C@@H](CO)C(=O)N[C@@H](CCCNC(=N)N)C(=O)N[C@@H](CC(C)C)C(=O)N[C@@H](CCC(=O)O)C(=O)N[C@H]1CSSC[C@H](C(=O)N[C@@H](CCCNC(=N)N)C(=O)N[C@@H](CCCNC(=N)N)C(=O)N[C@@H](CC(C)C)C(=O)N[C@H](C(=O)N[C@@H](CCC(=O)O)C(N)=O)[C@@H](C)O)NC(=O)[C@H](CC(C)C)NC(=O)[C@H](CCC(=O)O)NC1=O [SD15807, Ac-Pro-Ser-Arg-Leu-Glu-(cyclo6)Cys-Glu-Leu-(cyclo9)dCys-Arg-Arg-Leu-Thr-Glu-NH2] (Ac-PSRLECEL[dC]RRLTE-NH2; disulfide 6-9) | 100.0 % of T0 | > 6 | 6.07 | 78.7 | 60.9 | 37 | 100.0 % of T0 | 2.172 | 2.194 | 2.149 | 1.710 | 1.726 | 1.693 | 1.322 | 1.321 | 1.323 | 0.804 | 0.803 | 0.804 | 4.32 | Mean (compound concentration) [1, 4]: 2.217 and 2.958; Tube 2 (compound concentration) [1, 4]: 2.230 and 3.034; Tube 1 (compound concentration) [1, 5]: 2.203 x and 2.882 x; Mean (compound concentration) [1, 6]: 2.093 and 2.872; Tube 1 (compound concentration) [1, 6]: 2.094 x and 2.884 x; Tube 2 (compound concentration) [1, 6]: 2.092 and 2.860; Conc. (% of T0) ([1]; human plasma, 37° C., timepoint 1 h, 60 min): 97.1 % of T0; Mean (compound concentration) [1, 7]: 1.662 and 2.596; Tube 1 (compound concentration) [1, 7]: 1.583 x and 2.532 x; Tube 2 (compound concentration) [1, 7]: 1.740 and 2.660; Conc. (% of T0) ([1]; human plasma, 37° C., timepoint 3 h, 180 min): 87.8 % of T0; Conc. (% of T0) ([1]; human plasma, 37° C., timepoint 6 h, 360 min): 51.2 % of T0 and 77.7 % of T0; remaining at 1 h, 10 µM [1, 14]: 94.4%; remaining at 3 h, 10 µM [1, 15]: 75%
4 | CC(=O)N1CCC[C@H]1C(=O)N[C@@H](CO)C(=O)N[C@@H](CCCNC(=N)N)C(=O)N[C@@H](CC(C)C)C(=O)N[C@@H](CCC(=O)O)C(=O)N[C@H]1CCC(=O)NCCCC[C@H](C(=O)N[C@@H](CCCNC(=N)N)C(=O)N[C@@H](CC(C)C)C(=O)N[C@H](C(=O)N[C@@H](CCC(=O)O)C(N)=O)[C@@H](C)O)NC(=O)[C@H](CCCNC(=N)N)NC(=O)[C@H](CC(C)C)NC(=O)[C@H](CCC(=O)O)NC1=O [SD15808, Ac-Pro-Ser-Arg-Leu-Glu-(cyclo6)Glu-Glu-Leu-Arg-(cyclo10)dLys-Arg-Leu-Thr-Glu-NH2] (Ac-PSRLEEELR[dK]RLTE-NH2; lactam 6-10) |  | > 6 | 16.1 | 86.9 | 73.7 | 61.1 | 100.0 % of T0 | 3.198 | 3.173 | 3.223 | 2.780 | 2.668 | 2.892 | 2.357 | 2.398 | 2.316 | 1.955 | 2.018 | 1.892 | 8.74 | half-life [2, 12]: > 6 h; Kd [3]: 0.038 nM; ka [3]: 1.35e+07 M⁻¹ s⁻¹; kd [3]: 0.000513 s⁻¹; binding with respect to NbALFA ([3]; in words): very good binding

From patent publication US20250154202A1, “CYCLIC EPITOPE TAGS” (BIONTECH SE, priority 2022, published 2025)
